Measured values from patent publication US9981940B2, “Aryl sulfide derivatives and aryl sulfoxide derivatives as acaricides and insecticides” (BAYER CROPSCIENCE AKTIENGESELLSCHAFT, priority 2013, dated 2018).

What was measured:
[1] = log P by HPLC (OECD Guideline 117), method [a] acidic range; type: physicochemical; details: for logP[a]: HPLC, method [a] acidic range; for chromatographic logP: reversed-phase C18 HPLC column, acidic range
Procedure: (§1) The log P values were determined analogously to OECD Guideline 117 (EC Directive 92/69/EEC) by HPLC (high-performance liquid chromatography) using reversed-phase columns (C 18), by the following methods:
[a] The LC-MS determination in the acidic range is effected at pH 2.7 with 0.1% aqueous formic acid and acetonitrile (contains 0.1% formic acid) as eluents; linear gradient from 10% acetonitrile to 95% acetonitrile.

[2] = log P by HPLC (OECD Guideline 117), method [b] neutral range; type: physicochemical; details: HPLC; for logP[b]: method [b] neutral range; for chromatographic logP: reversed-phase C18 HPLC column, neutral range, pH 7.8
Procedure: as §1
[b] The LC-MS determination in the neutral range is effected at pH 7.8 with 0.001 molar aqueous ammonium hydrogencarbonate solution and acetonitrile as eluents; linear gradient from 10% acetonitrile to 95% acetonitrile.

Meloidogyne incognita = Meloidogyne incognita test (MELGIN); type: in vivo; details: application rate of 20 ppm; after 14 days, by formation of galls
Procedure: Meloidogyne Incognita Test (MELGIN)
• Solvent: 125.0 parts by weight of acetone
To produce an appropriate active ingredient formulation, 1 part by weight of active ingredient is mixed with the specified amounts of solvent and the concentrate is diluted to the desired concentration with water.
Vessels are filled with sand, active ingredient solution, an egg/larvae suspension of the southern root-knot nematode (Meloidogyne incognita) and lettuce seeds. The lettuce seeds germinate and the plants develop. The galls develop on the roots
After 14 days, the nematicidal efficacy in % is determined by the formation of galls. 100% means that no galls have been found; 0% means that the number of galls on the treated plants corresponds to the untreated control.

Phaedon cochleariae = Phaedon cochleariae spray test (PHAECO); type: in vivo; details: after 7 days; for pest or weed control at 500 g/ha: Phaedon cochleariae, 168 h, read-out: efficacy
Procedure: Phaedon cochleariae—Spray Test (PHAECO)
• Solvent: 78.0 parts by weight of acetone • 1.5 parts by weight of dimethylformamide • Emulsifier: 0.5 part by weight of alkylaryl polyglycol ether
To produce an appropriate active ingredient formulation, 1 part by weight of active ingredient is mixed with the specified amounts of solvent and emulsifier, and the concentrate is diluted to the desired concentration with emulsifier-containing water.
Discs of Chinese cabbage leaves (Brassica pekinensis) are sprayed with an active ingredient formulation of the desired concentration and, after drying, populated with larvae of the mustard beetle (Phaedon cochleariae).
After 7 days, the efficacy in % is determined 100% means that all beetle larvae have been killed; 0% means that none of the beetle larvae have been killed.

Tetranychus urticae = Tetranychus urticae spray test, OP-resistant (TETRUR); type: in vivo; details: application rate of 500 g/ha, after 6 days; for pest or weed control at 500 g/ha: Tetranychus urticae, 144 h, read-out: efficacy
Outline: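 Bean leaf discs infested with all stages of an OP-resistant Tetranychus urticae strain sprayed with compound in acetone/DMF with alkylaryl polyglycol ether emulsifier, diluted in water. Efficacy in % scored after 6 days; 100% means all mites killed.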

Boophilus microplus = Boophilus microplus injection test (BOOPMI Inj); type: in vivo; details: application rate of 20 μg/animal, assessed after 7 days by laying of fertile eggs
Procedure: Use Examples Boophilus microplus Injection Test (BOOPMI Inj) • Solvent: dimethyl sulphoxide
To prepare an appropriate active ingredient formulation, 10 mg of active ingredient are mixed with 0.5 ml of solvent and the concentrate is diluted with solvent to the desired concentration.
1 μl of the active ingredient solution is injected into the abdomen of 5 engorged adult female cattle ticks (Boophilus microplus). The animals are transferred into dishes and kept in a climate-controlled room.
The efficacy is assessed after 7 days by laying of fertile eggs. Eggs which are not visibly fertile are stored in a climate-controlled cabinet until the larvae hatch after about 42 days.
An efficacy of 100% means that none of the ticks has laid any fertile eggs; 0% means that all the eggs are fertile.

[3] = pH 2.7, HPLC method [a], read-out: logP[a]
[4] = pH 2.7, HPLC, pH 2.7, read-out: log P[a]

| SMILES | logP[a] [1] | logP[b] [2] | efficacy (Phaedon cochleariae; application rate of 500 g/ha) [%] | efficacy (Tetranychus urticae) [%] | further results |
| --- | --- | --- | --- | --- | --- |
| CCC(C)Oc1nn(-c2ccc(C)c(SCC(F)(F)F)c2)c(=O)n1C1CC1 (stereo not shown) [Example 142] | 5.01 | 4.96 |  |  | nematicidal efficacy (Meloidogyne incognita): 90% |
| C=CCn1c(OC)nn(-c2ccc(C)c(SCC(F)(F)F)c2)c1=O [Example 176] | 3.87 | 3.81 | 100 | 90 |  |
| CCN(CC)c1nn(-c2cc([S+]([O-])CC(F)(F)F)c(C)cc2F)c(=O)n1N (stereo not shown) [Example 223] | 2.23 | 2.18 | 100 | 90 |  |
| Cc1ccc(-n2nc(OCC3CC3)n(C3CC3)c2=O)cc1SCC(F)(F)F [Example 135] | 4.60 | 4.56 |  |  | nematicidal efficacy (Meloidogyne incognita): 90% |
| COc1nn(-c2cc([S+]([O-])CC(F)(F)F)c(Cl)cc2F)c(=O)n1C (stereo not shown) [Example 98] | 2.12 | 2.10 |  | 100 | efficacy (Phaedon cochleariae; application rate of 100 g/ha): 83% |
| Cc1cc(F)c(-n2nc(C)n(N)c2=O)cc1[S+]([O-])CC(F)(F)F (stereo not shown) [Example 209] | 1.36 | 1.34 | 83 | 100 |  |
| COc1nn(-c2ccc(Br)c(SCC(F)(F)F)c2)c(=O)n1C1CC1 [Example 111] | 4.01 | 3.93 |  |  | nematicidal efficacy (Meloidogyne incognita): 100% |
| COc1nn(-c2ccc(C#N)c([S+]([O-])CC(F)(F)F)c2)c(=O)n1C1CC1 (stereo not shown) [Example 118] | 2.47 | 2.43 |  |  | nematicidal efficacy (Meloidogyne incognita): 100% |
| CNc1nn(-c2cc([S+]([O-])CC(F)(F)F)c(C)cc2F)c(=O)n1N (stereo not shown) [Example 219] | 1.32 | 1.29 | 100 | 90 |  |
| Cc1cc(F)c(-n2nc(C(F)(F)F)n(N(C)C)c2=O)cc1SCC(F)(F)F [Example 214] | 4.24 | 4.15 |  |  | nematicidal efficacy (Meloidogyne incognita): 90% |
| Cc1ccc(-n2nc(OC(C)(C)C)n(C)c2=O)cc1SCC(F)(F)F [Example 154] | 4.55 | 4.45 | 83 | 100 |  |
| COc1nn(-c2ccc(Br)c([S+]([O-])CC(F)(F)F)c2)c(=O)n1C1CC1 (stereo not shown) [Example 110] | 3.00 | 2.95 |  |  | nematicidal efficacy (Meloidogyne incognita): 100% |
| Cc1cc(F)c(-n2ncn(-c3ccc(F)cc3)c2=O)cc1[S+]([O-])CC(F)(F)F (racemic) [Example 355] | 2.45 | 2.41 | 83 | 90 |  |
| Cc1cc(F)c(-n2nc(OCC(Cl)(Cl)Cl)n(C)c2=O)cc1[S+]([O-])CC(F)(F)F (stereo not shown) [Example 392] | 3.13 | 3.09 | 100 | 90 | efficacy (Boophilus microplus): 100% |
| CCOC1=CC(=O)N(c2cc(SCC(F)(F)F)c(C)cc2F)C1 [Example 330] | 3.29 | 3.21 | 100 | 90 |  |
| Cc1cc(F)c(-n2nnn(C)c2=S)cc1SCC(F)(F)F [Example 447, 1-{2-Fluoro-4-methyl-5-[(2,2,2-trifluoroethyl)sulphanyl]phenyl}-4-methyl-1,4-dihydro-5H-tetrazole-5-thione] |  |  |  |  | pest or weed control at 500 g/ha (Phaedon cochleariae; application rate of 500 g/ha): 100%; chromatographic logP [1, 3]: 3.51; chromatographic logP [1, 4]: 3.51; chromatographic logP [2]: 3.49; pest or weed control at 500 g/ha (Tetranychus urticae): 100% |

| SMILES | logP[a] [1] | logP[b] [2] | efficacy (Phaedon cochleariae; application rate of 500 g/ha) [%] | efficacy (Tetranychus urticae) [%] | further results |
| --- | --- | --- | --- | --- | --- |
| Cc1cc(F)c(-n2ncn(-c3ccccc3)c2=O)cc1SCC(F)(F)F [Example 351] | 3.43 | 3.36 | 100 | 100 |  |
| Cc1cc(F)c(N2CC(OC3CCCC3)=CC2=O)cc1SCC(F)(F)F [Example 329, 4-(Cyclopentyloxy)-1-{2-fluoro-4-methyl-5-[(2,2,2-trifluoroethyl)sulphanyl]phenyl}-1,5-dihydro-2H-pyrrol-2-one] |  |  |  |  | pest or weed control at 500 g/ha (Phaedon cochleariae; application rate of 500 g/ha): 100%; chromatographic logP [1, 3]: 4.2; chromatographic logP [1, 4]: 4.2; chromatographic logP [2]: 4.06; pest or weed control at 500 g/ha (Tetranychus urticae): 90% |
| COc1nn(-c2cc(SCC(F)(F)F)c(Cl)cc2Cl)c(=O)n1C1CC1 [Example 107] | 3.46 | 3.42 |  |  | nematicidal efficacy (Meloidogyne incognita): 90% |
| Cc1cc(F)c(N2CC(OC3CCCC3)=CC2=O)cc1[S+]([O-])CC(F)(F)F (stereo not shown) [Example 336, 4-(Cyclopentyloxy)-1-{2-fluoro-4-methyl-5-[(2,2,2-trifluoroethyl)sulphinyl]phenyl}-1,5-dihydro-2H-pyrrol-2-one] |  |  |  |  | pest or weed control at 500 g/ha (Phaedon cochleariae; application rate of 500 g/ha): 83%; chromatographic logP [1, 3]: 2.97; chromatographic logP [1, 4]: 2.97; chromatographic logP [2]: 2.91; pest or weed control at 500 g/ha (Tetranychus urticae): 90% |
| C=CCn1c(SC)nn(-c2cc([S+]([O-])CC(F)(F)F)c(C)cc2F)c1=O (stereo not shown) [Example 272] | 2.54 | 2.48 | 83 | 100 |  |
| C=CCn1c(OC)nn(-c2cc([S+]([O-])CC(F)(F)F)c(C)cc2F)c1=O (racemic) [Example 183] | 2.24 | 2.21 | 100 | 100 |  |
| COc1nn(-c2cc(SCC(F)(F)F)c(C)cc2F)c(=O)n1CC1CC1 [Example 390] | 3.64 | 3.58 | 100 | 100 | efficacy (Boophilus microplus): 100% |
| Cc1cc(F)c(-n2nc(OCC(Cl)(Cl)Cl)n(C)c2=O)cc1SCC(F)(F)F [Example 376] | 4.23 | 4.18 | 100 | 100 |  |
| Cc1cc(F)c(-n2nc(C)n(-c3ccccc3)c2=O)cc1SCC(F)(F)F [Example 350] | 3.40 | 3.34 | 83 | 100 |  |
| COCCOC1=CC(=O)N(c2cc(SCC(F)(F)F)c(C)cc2F)C1 [Example 328] | 2.86 | 2.82 | 100 | 90 |  |
| COc1nn(-c2cc(SCC(F)(F)F)c(C)cc2F)c(=O)n1C [Example 93] | 2.78 | 2.73 | 100 | 90 |  |
| Cc1cc(F)c(-n2nc(Cl)n(C)c2=O)cc1SCC(F)(F)F [Example 435] | 3.07 | 3.04 | 83 | 100 |  |
| CC(C)(C)COc1nn(-c2cc(SCC(F)(F)F)c(Cl)cc2F)c(=O)n1C1CC1 [Example 394] | 4.95 | 4.89 | 83 | 100 |  |
| Cc1cc(F)c(-n2nc(C)n(C)c2=O)cc1SCC(F)(F)F [Example 10, 2-{2-Fluoro-4-methyl-5-[(2,2,2-trifluoroethyl)sulphanyl]phenyl}-4,5-dimethyl-2,4-dihydro-3H-1,2,4-triazol-3-one] |  |  |  |  | pest or weed control at 500 g/ha (Phaedon cochleariae; application rate of 500 g/ha): 100%; chromatographic logP [1, 3]: 2.42; chromatographic logP [1, 4]: 2.42; chromatographic logP [2]: 2.38; pest or weed control at 500 g/ha (Tetranychus urticae): 90% |
| COC1=CC(=O)N(c2ccc(C(F)(F)F)c([S+]([O-])CC(F)(F)F)c2)C1 (stereo not shown) [Example 321] | 2.61 | 2.55 | 100 |  | efficacy (Boophilus microplus): 100% |
| C=CCn1c(OC)nn(-c2ccc(C)c([S+]([O-])CC(F)(F)F)c2)c1=O (stereo not shown) [Example 179] | 2.61 | 2.57 | 100 | 90 |  |
